Here are results for four compounds from patent US8481001B2, “Combination therapies comprising quinoxaline inhibitors of P13K-alpha for use in the treatment of cancer” (Exelixis, Inc., priority 2007, dated 2013).

In data set [1] the test system is A549 human lung carcinoma cells. In words: A549 non-small cell lung cancer xenograft model. It counts as in vivo. The method, then: A transponder was implanted in each mouse for identification, and animals were monitored daily for clinical symptoms and survival. Body weights were recorded daily.
Compound A was tested both as a single agent and in combination with Compound B. The A549 human non-small cell lung carcinoma cell line harbors a homozygous stop mutation in the gene encoding LKB1, and an activating G12S mutation in K-Ras, promoting activation of both PI3K and mTOR. A549 cells also express wild-type EGFR.
As a single agent, Compound B, an inhibitor of EGFR, was orally administered once-daily at 30 mg/kg and Compound A was orally administered either at 30 mg/kg qd or 100 mg/kg q2d. Combination therapies consisted of Compound B with Compound A at 30 mg/kg or 100 mg/kg. Administration of each agent in the combination groups was separated by 6 h.

The test system of data set [2] is MCF7 human mammary adenocarcinoma cells. Briefly: MCF7 breast cancer xenograft model (Study 1 and Study 2). It counts as in vivo. Conditions: Compound B 30 mg/kg qd, single agent. The procedure:
On day 0, cells were harvested by trypsinization, and 5×10^6 cells (passage 10 and 95.4% viability for Study 1, passage 9 and 90% viability for Study 2) in 100 μL of a solution made of 50% cold Hanks balanced salt solution with 50% growth factor reduced matrigel (R&D Systems for Study 1 and Becton Dickinson for Study 2) implanted subcutaneously into the hindflank of female nude mice.
Compound A was tested both as a single agent and in combination with Compound B, an EGFR inhibitor, in a breast tumor model. The MCF7 human breast carcinoma cell line harbors a heterozygous, activating mutation in PI3K (PI3KCA/E545K) and expresses wild-type EGFR.
Compound B was administered orally once-daily (qd) at 30 mg/kg, and Compound A was administered once-daily at 30 mg/kg or once every other day (q2d) at 100 mg/kg. Combination therapies consisted of Compound B together with Compound A at 30 mg/kg qd or 100 mg/kg q2d.

The subject of data set [3] is Calu-6 human lung anaplastic carcinoma cells. In words: Calu-6 non-small cell lung cancer xenograft model. The data set is classed as in vivo. The conditions noted are these: carboplatin 50 mg/kg i.v. q4d, single agent; FIG. 3. The procedure: On day 0, cells were harvested by trypsinization, and 5×10^6 cells (passage #8, 96% viability) in 0.1 mL ice-cold Hank's balanced salt solution were implanted intradermally in the hind-flank of 5-8 week old female athymic nude mice. A transponder was implanted in each mouse for identification, and animals were monitored daily for clinical symptoms and survival. Body weights were recorded daily.
Calu-6 is a human NSCLC cell line that harbors a heterozygous activating mutation in K-Ras (Q61K).

The subject of the next data set is MDA-MB-468 cells. The conditions noted are these: in vitro treatment of MDA-MB-468 cells. The source says:
(§1) MDA-MB-468 is a human breast carcinoma cell line that has an increase in the copy number of the EGFR gene and a homozygous deletion of PTEN.

Data set [4] has as its system MDA-MB-468 human breast adenocarcinoma cells.
Excerpt: as §1

The subject of data set [5] is PC-3 human prostate adenocarcinoma cells. It counts as in vivo. Conditions: taxol 7.5 mg/kg i.v. twice weekly, single agent; FIG. 1.
Experimental: Female and male athymic nude mice (NCr) 5-8 weeks of age and weighing approximately 20-25 g were used in the following model. Prior to initiation of a study, the animals were allowed to acclimate for a minimum of 48 h. During these studies, animals were provided food and water ad libitum and housed in a room conditioned at 70-75° F. and 60% relative humidity. A12 h light and 12 h dark cycle was maintained with automatic timers. All animals were examined daily for compound-induced or tumor-related deaths.
PC-3 human prostate adenocarcinoma cells were cultured in vitro in DMEM (Mediatech) supplemented with 20% Fetal Bovine Serum (Hyclone), Penicillin-Streptomycin and non-essential amino acids at 37° C. in a humidified 5% CO2 atmosphere. […] A transponder was implanted in each mouse for identification, and animals were monitored daily for clinical symptoms and survival. Body weights were recorded daily.
For subcutaneous or intradermal tumors, the mean tumor weight of each animal in the respective control and treatment groups was determined twice weekly during the study. […] Percent inhibition of tumor growth (TGI) is determined with the following formula: […]
[formula] Tumor size is calculated individually for each tumor to obtain a mean±SEM value for each experimental group. Statistical significance is determined using the 2-tailed Student's t-test (significance defined as P<0.05).
Where [6] appears, read: Compound B 30 mg/kg qd, single agent.

SMILES strings stand for the structures.

Regarding `COc1cc2c(Nc3ccc(Cl)c(Cl)c3F)ncnc2cc1OC[C@@H]1C[C@@H]2CN(C)C[C@@H]2C1` [Compound B, N-(3,4-dichloro-2-fluorophenyl)-7-({[(3aR,5r,6aS)-2-methyloctahydrocyclopenta-[c]pyrrol-5-yl]methyl}oxy)-6-(methyloxy)quinazolin-4-amine], in data set [1] (setting [6]), the body weight loss was 1.5-6.9%, the dose omission result is reported as “no dose omission” and the tolerability entry is “generally well tolerated”. Besides, in data set [1] (Compound B oral 30 mg/kg once-daily for 18 days, single agent), the tumor growth inhibition is listed as 80%. Also, the “tolerability (summary)” value in data set [1] (single agent administration) is on record as “well tolerated with minimal dose skipping”. Moreover, in data set [2], the tolerability entry is “generally well tolerated”.

With `N.N.O=C([O-])C1(C(=O)[O-])CCC1.[Pt+2]` [carboplatin], in data set [3], the tumor growth inhibition entry is listed as “Significant tumor growth inhibition”.

For the compound `C#Cc1cccc(Nc2ncnc3cc(OCCOC)c(OCCOC)cc23)c1` [erlotinib], the PI3K pathway entry in the data set with MDA-MB-468 cells is listed as “fails to downregulate the PI3K pathway”. For the same compound, the tumor growth inhibition entry in data set [4] (erlotinib oral 100 mg/kg qd, single agent, FIG. 5) is on record as “significant but incomplete tumor growth inhibition”. In data set [4] (mouse, in vivo), the “rate of body weight gain” value was “apparent decrease in their rate of body weight gain”.

In the case of `CC(=O)O[C@H]1C(=O)[C@@]2(C)[C@H]([C@H](OC(=O)c3ccccc3)[C@]3(O)C[C@H](OC(=O)[C@H](O)[C@@H](NC(=O)c4ccccc4)c4ccccc4)C(C)=C1C3(C)C)[C@]1(OC(C)=O)CO[C@@H]1C[C@@H]2O` [taxol, Paclitaxel], the tumor growth inhibition result in data set [5] is “Comparable tumor growth inhibition”.
